Measured values: ChEMBL document CHEMBL3425444, “Discovery of piperidin-4-yl-aminopyrimidine derivatives as potent non-nucleoside HIV-1 reverse transcriptase inhibitors” (Eur J Med Chem, 2015)

Columns and labels:
[1] = target: Human immunodeficiency virus type 1 reverse transcriptase (Human immunodeficiency virus 1, UniProt Q72547); assay: Inhibition of HIV1 recombinant wild type reverse transcriptase p66/p51 assessed as reduction in biotin-labeled dUTP incorporation into DNA using polyr(A) x oligo(dT)16 template/primer hybrid
[2] = Selectivity index, ratio of CC50 for human MT4 cells to EC50 for HIV1 3B infected in human MT4 cells; type: toxicity, cell-based; conditions: HIV1 3B infected MT4 cells, read-out: Selectivity Index
[3] = tested on: Human immunodeficiency virus 1; assay: Antiviral activity against HIV-1 RES056 harboring reverse transcriptase K103N/Y181C double mutant infected in human MT4 cells assessed as protection from virus-induced cytopathicity after 4 days by MTT assay; type: functional, organism-based; conditions: Human immunodeficiency virus 1, RES056, MT4, 96 h
[4] = Cytotoxicity against human MT4 cells assessed as reduction of cell viability after 4 days by MTT assay; type: cell-based
[5] = tested on: Human immunodeficiency virus 2; assay: Antiviral activity against HIV-2 ROD infected in human MT4 cells assessed as protection from virus-induced cytopathicity after 4 days by MTT assay; type: functional, organism-based; conditions: Human immunodeficiency virus 2, ISOLATE ROD, MT4, 96 h
[6] = Retention time of the compound by HPLC analysis; type: physicochemical
[7] = tested on: Human immunodeficiency virus 1; assay: Antiviral activity against wild type HIV1 3B infected in human MT4 cells assessed as protection from virus-induced cytopathicity after 4 days by MTT assay; type: functional, organism-based; conditions: Human immunodeficiency virus 1, 3B, MT4, 96 h

Cc1cc(C#N)cc(C)c1Oc1ccnc(NC2CCN(CC(=O)Nc3ccccc3[N+](=O)[O-])CC2)n1
IC50 [1]: 193 nM
selectivity ratio [2]: 1420
EC50 [3]: > 59300 nM
CC50 at 96 h [4]: 59300 nM
EC50 [5]: > 59300 nM
Retention_time [6]: 11.75 min
EC50 [7]: 41.9 nM

Cc1cc(C#N)cc(C)c1Oc1ccnc(NC2CCN(CC(=O)Nc3ccc(O)cc3)CC2)n1
IC50 [1]: 102 nM
selectivity ratio [2]: 1040
EC50 [3]: > 2180 nM
CC50 at 96 h [4]: 2180 nM
EC50 [5]: > 2180 nM
Retention_time [6]: 10.25 min
EC50 [7]: 2.1 nM

Cc1cccc(NC(=O)CN2CCC(Nc3nccc(Oc4c(C)cc(C#N)cc4C)n3)CC2)c1
selectivity ratio [2]: 254
EC50 [3]: > 1680 nM
CC50 at 96 h [4]: 1680 nM
EC50 [5]: > 1680 nM
Retention_time [6]: 11.43 min
EC50 [7]: 6.6 nM

Cc1cc(C#N)cc(C)c1Oc1ccnc(NC2CCN(CC(=O)Nc3ccc(C#N)cc3F)CC2)n1
IC50 [1]: 174 nM
selectivity ratio [2]: 245
EC50 [3]: > 1960 nM
CC50 at 96 h [4]: 1960 nM
EC50 [5]: > 1960 nM
Retention_time [6]: 11.27 min
EC50 [7]: 8 nM

Cc1cc(C#N)cc(C)c1Oc1ccnc(NC2CCN(CC(=O)Nc3ccccc3)CC2)n1
IC50 [1]: 199 nM
selectivity ratio [2]: 551
EC50 [3]: > 1820 nM
CC50 at 96 h [4]: 1820 nM
EC50 [5]: > 1820 nM
Retention_time [6]: 10.9 min
EC50 [7]: 3.3 nM

Cc1cc(C#N)cc(C)c1Oc1ccnc(NC2CCN(CC(=O)Nc3cccc(F)c3)CC2)n1
selectivity ratio [2]: 231
EC50 [3]: > 1410 nM
CC50 at 96 h [4]: 1410 nM
EC50 [5]: > 1410 nM
Retention_time [6]: 11.41 min
EC50 [7]: 6.1 nM

CC(C)Nc1cccnc1N1CCN(C(=O)c2cc3cc(NS(C)(=O)=O)ccc3[nH]2)CC1 [DELAVIRDINE]
selectivity ratio [2]: > 67
EC50 [3]: > 43800 nM
CC50 at 96 h [4]: > 43800 nM

Cc1cc(C#N)cc(C)c1Oc1ccnc(NC2CCN(CC(=O)Nc3ccc(Br)cc3)CC2)n1
selectivity ratio [2]: 238
EC50 [3]: > 1480 nM
CC50 at 96 h [4]: 1480 nM
EC50 [5]: > 1480 nM
Retention_time [6]: 11.85 min
EC50 [7]: 6.2 nM

Cc1cc(C#N)cc(C)c1Oc1nc(Nc2ccc(C#N)cc2)nc(N)c1Br [ETRAVIRINE]
selectivity ratio [2]: > 1120
EC50 [3]: 25.3 nM
CC50 at 96 h [4]: > 4600 nM

Cc1cc(C#N)cc(C)c1Oc1ccnc(NC2CCN(CC(=O)Nc3cccc(Cl)c3)CC2)n1
selectivity ratio [2]: 214
EC50 [3]: > 1260 nM
CC50 at 96 h [4]: 1260 nM
EC50 [5]: > 1260 nM
Retention_time [6]: 11.95 min
EC50 [7]: 5.9 nM

Cc1cc(C#N)cc(C)c1Oc1ccnc(NC2CCN(CC(=O)Nc3ccc(C#N)cc3)CC2)n1
selectivity ratio [2]: 208
EC50 [3]: > 602 nM
CC50 at 96 h [4]: 602 nM
EC50 [5]: > 602 nM
Retention_time [6]: 10.72 min
EC50 [7]: 2.9 nM

Cc1cc(C#N)cc(C)c1Oc1ccnc(NC2CCN(CC(=O)Nc3ccccc3Cl)CC2)n1
selectivity ratio [2]: 44
EC50 [3]: > 1510 nM
CC50 at 96 h [4]: 1510 nM
EC50 [5]: > 1510 nM
Retention_time [6]: 12.14 min
EC50 [7]: 34.6 nM

O=C1Nc2ccc(Cl)cc2[C@@](C#CC2CC2)(C(F)(F)F)O1 [EFAVIRENZ]
CC50 at 96 h [4]: > 6340 nM
EC50 [7]: 6.3 nM

Cc1ccccc1NC(=O)CN1CCC(Nc2nccc(Oc3c(C)cc(C#N)cc3C)n2)CC1
selectivity ratio [2]: 20
EC50 [3]: > 1250 nM
CC50 at 96 h [4]: 1250 nM
EC50 [5]: > 1250 nM
Retention_time [6]: 11.33 min
EC50 [7]: 61.6 nM

Cc1cc(C#N)cc(C)c1Oc1ccnc(NC2CCN(CC(=O)Nc3ccc(Cl)cc3Cl)CC2)n1
selectivity ratio [2]: 15
EC50 [3]: > 1750 nM
CC50 at 96 h [4]: 1750 nM
EC50 [5]: > 1750 nM
Retention_time [6]: 13.21 min
EC50 [7]: 118 nM

Cc1cc(C#N)cc(C)c1Oc1ccnc(NC2CCN(CC(=O)Nc3ccc(S(N)(=O)=O)cc3)CC2)n1
IC50 [1]: 116 nM
selectivity ratio [2]: 845
EC50 [3]: > 1610 nM
CC50 at 96 h [4]: 1610 nM
EC50 [5]: > 1610 nM
Retention_time [6]: 9.11 min
EC50 [7]: 1.9 nM

Cc1ccc(NC(=O)CN2CCC(Nc3nccc(Oc4c(C)cc(C#N)cc4C)n3)CC2)cc1
IC50 [1]: 181 nM
selectivity ratio [2]: 367
EC50 [3]: > 2020 nM
CC50 at 96 h [4]: 2020 nM
EC50 [5]: > 2020 nM
Retention_time [6]: 11.29 min
EC50 [7]: 5.5 nM

Cc1cc(C#N)cc(C)c1Oc1ccnc(NC2CCN(CC(=O)Nc3ccc(Cl)cc3)CC2)n1
selectivity ratio [2]: 164
EC50 [3]: > 998 nM
CC50 at 96 h [4]: 998 nM
EC50 [5]: > 998 nM
Retention_time [6]: 11.62 min
EC50 [7]: 6.1 nM

Cc1cc(S(N)(=O)=O)ccc1NC(=O)CN1CCC(Nc2nccc(Oc3c(C)cc(C#N)cc3C)n2)CC1
IC50 [1]: 166 nM
selectivity ratio [2]: 309
EC50 [3]: > 1640 nM
CC50 at 96 h [4]: 1640 nM
EC50 [5]: > 1640 nM
Retention_time [6]: 9.61 min
EC50 [7]: 5.3 nM

Cc1cc(C#N)cc(C)c1Oc1ccnc(NC2CCN(CC(=O)Nc3ccc(Cl)c(Cl)c3)CC2)n1
selectivity ratio [2]: 61
EC50 [3]: > 1280 nM
CC50 at 96 h [4]: 1280 nM
EC50 [5]: > 1280 nM
Retention_time [6]: 12.62 min
EC50 [7]: 20.9 nM

Cc1cc(C#N)cc(C)c1Oc1ccnc(NC2CCN(CC(=O)Nc3cc(Cl)cc(Cl)c3)CC2)n1
selectivity ratio [2]: 46
EC50 [3]: > 3520 nM
CC50 at 96 h [4]: 3520 nM
EC50 [5]: > 3520 nM
Retention_time [6]: 13.08 min
EC50 [7]: 76.1 nM

Cc1cc(C)cc(NC(=O)CN2CCC(Nc3nccc(Oc4c(C)cc(C#N)cc4C)n3)CC2)c1
selectivity ratio [2]: 155
EC50 [3]: > 2310 nM
CC50 at 96 h [4]: 2310 nM
EC50 [5]: > 2310 nM
Retention_time [6]: 12.18 min
EC50 [7]: 14.9 nM

Cc1cc(C#N)cc(C)c1Oc1ccnc(NC2CCN(CC(=O)Nc3ccc([N+](=O)[O-])cc3)CC2)n1
IC50 [1]: 136 nM
selectivity ratio [2]: 89
EC50 [3]: > 518 nM
CC50 at 96 h [4]: 518 nM
EC50 [5]: > 518 nM
Retention_time [6]: 11.13 min
EC50 [7]: 5.8 nM

Cc1cc(C#N)cc(C)c1Oc1ccnc(NC2CCN(CC(=O)Nc3c(Cl)cc(Cl)cc3Cl)CC2)n1
selectivity ratio [2]: ≤ 5
EC50 [3]: > 1500 nM
CC50 at 96 h [4]: 1500 nM
EC50 [5]: > 1500 nM
Retention_time [6]: 11.85 min
EC50 [7]: ≥ 304 nM

Cc1ccc(NC(=O)CN2CCC(Nc3nccc(Oc4c(C)cc(C#N)cc4C)n3)CC2)cc1C
selectivity ratio [2]: 177
EC50 [3]: > 1510 nM
CC50 at 96 h [4]: 1510 nM
EC50 [5]: > 1510 nM
Retention_time [6]: 12.21 min
EC50 [7]: 8.5 nM

Cc1cc(C#N)cc(C)c1Oc1ccnc(NC2CCN(CC(=O)Nc3cccc([N+](=O)[O-])c3)CC2)n1
IC50 [1]: 156 nM
selectivity ratio [2]: ≥ 49
EC50 [3]: > 379 nM
CC50 at 96 h [4]: ≥ 379 nM
EC50 [5]: > 379 nM
Retention_time [6]: 11.49 min
EC50 [7]: 7.8 nM

Cc1cc(C#N)cc(C)c1Oc1ccnc(NC2CCN(CC(=O)Nc3ccccc3F)CC2)n1
IC50 [1]: 207 nM
selectivity ratio [2]: 16900
EC50 [3]: > 119000 nM
CC50 at 96 h [4]: 119000 nM
EC50 [5]: > 119000 nM
Retention_time [6]: 11.43 min
EC50 [7]: 7 nM

COc1ccc(NC(=O)CN2CCC(Nc3nccc(Oc4c(C)cc(C#N)cc4C)n3)CC2)cc1
selectivity ratio [2]: 446
EC50 [3]: > 1560 nM
CC50 at 96 h [4]: 1560 nM
EC50 [5]: > 1560 nM
Retention_time [6]: 10.82 min
EC50 [7]: 3.5 nM

Cc1cc(C#N)cc(C)c1Oc1ccnc(NC2CCN(CC(=O)Nc3ccc(F)cc3)CC2)n1
IC50 [1]: 204 nM
selectivity ratio [2]: 431
EC50 [3]: > 1810 nM
CC50 at 96 h [4]: 1810 nM
EC50 [5]: > 1810 nM
Retention_time [6]: 10.85 min
EC50 [7]: 4.2 nM
